# Source: patent US20260263533A1, “COMBINATION OF BIFIDOBACTERIUM AND FUCOSYLATED HMO FOR USE IN INCREASING NMN OR NAD+” (DSM IP Assets B.V., priority 2022, published 2026)
# Key:
# B. bifidum HA-132 = test: BioLector growth on carbon sources; format: cell-based, Bifidobacterium bifidum; settings: 1% carbon source in MRS without glucose, 37° C., up to 72 hours, anaerobic
# Experimental: (§1) Initial overnight cultures in de Man, Rogosa, and Sharpe (MRS) medium with glucose (Merck, cat #110661) were prepared in an anaerobic chamber with mixed gas (90% N2, 5% CO2, and 5% H2) at 37° C. From the overnight cultures strains were subcultured 1:100 or 1:10 (if slow growing) into fresh MRS (with glucose) and grown to mid-log (without shaking) in the anerobic chamber at 37° C. For the carbohydrate utilization analysis, a BioLector (automated culturomics equipment, Biosciences) was used. Cells were inoculated 1:100 into MRS (without glucose, Liofilchem Cat #610144) in a 48 well MTP plate (Biosciences) containing 1% of one of the following carbon sources: glucose, lactose, a HMO mixture (containing 2′FL, 2′FL: DFL (range of 6:1-8:1), 3FL, 3′SL, 6′SL, LNnT and LNT in equal portions), HMO mixture+lactose or sterile DI water (as no sugar control) in a final volume of 2 mL and grown in the BioLector at 37° C. for up to 72 hours, shaking at 400 rpm under anaerobic conditions and continuous nitrogen gas flow. If a strain grew on the HMO mixture the experiment was repeated with the individual HMOs of the mixture as carbon source. Change in biomass, pH, and dissolved oxygen was monitored every 20 minutes by the BioLector. A minimum of two replicates were completed for each carbon source. Samples were transferred to a 96 deep-well plate, spun down at 4000 rpm for 10 min at 4° C., and supernatants removed for analysis or stored at −80° C. until further analysis.
# B. bifidum 32403 = test: BioLector growth on carbon sources; format: cell-based, Bifidobacterium bifidum; settings: for Ability to grow on carbon source: 1% carbon source in MRS without glucose, 37° C., up to 72 hours, anaerobic
# Experimental: as §1
# B. bifidum R0071 [1] = test: BioLector growth on carbon sources; format: cell-based, Bifidobacterium bifidum; design: key: +++: fast exponential growth reaching a plateau before 45 hours; ++: slower exponential growth reaching a plateau after 45 hours; +: slow almost linear growth, does not reach plateau during the time of fermentation; −: No significant growth for 50 h or more; settings: 1% carbon source in MRS without glucose, 37° C., up to 72 hours, anaerobic
# Experimental: as §1
# B. infantis HA-116 [2] = test: BioLector growth on carbon sources; format: cell-based, Bifidobacterium infantis; design: key: +++: fast exponential growth reaching a plateau before 45 hours; ++: slower exponential growth reaching a plateau after 45 hours; +: slow almost linear growth, does not reach plateau during the time of fermentation; −: No significant growth for 50 h or more; settings: 1% carbon source in MRS without glucose, 37° C., up to 72 hours, anaerobic
# Experimental: as §1
# B. infantis R0033 [3] = test: BioLector growth on carbon sources; format: cell-based, Bifidobacterium infantis; design: key: +++: fast exponential growth reaching a plateau before 45 hours; ++: slower exponential growth reaching a plateau after 45 hours; +: slow almost linear growth, does not reach plateau during the time of fermentation; −: No significant growth for 50 h or more; settings: 1% carbon source in MRS without glucose, 37° C., up to 72 hours, anaerobic
# Experimental: as §1
# B. infantis HA-116 [4] = test: Metabolomics of culture supernatants (NMN, NAD+); format: cell-based, Bifidobacterium infantis
# Experimental: as §1, with “[…] Sample supernatants” for “Samples”, “analyzed using metabolomics by Metabolon (NC, USA).” for “transferred to a 96 deep-well plate, spun down at 4000 rpm for 10 min at 4° C., and supernatants removed for analysis or stored at −80° C. until further analysis.”
# B. infantis R0033 [5] = test: Metabolomics of culture supernatants (NMN, NAD+); format: cell-based, Bifidobacterium infantis
# Experimental: as §1, with “[…] Sample supernatants” for “Samples”, “analyzed using metabolomics by Metabolon (NC, USA).” for “transferred to a 96 deep-well plate, spun down at 4000 rpm for 10 min at 4° C., and supernatants removed for analysis or stored at −80° C. until further analysis.”
# L. plantarum TIFN101 [6] = test: Metabolomics of culture supernatants (NMN, NAD+); format: cell-based, Lactobacillus plantarum
# Experimental: as §1, with “[…] Sample supernatants” for “Samples”, “analyzed using metabolomics by Metabolon (NC, USA).” for “transferred to a 96 deep-well plate, spun down at 4000 rpm for 10 min at 4° C., and supernatants removed for analysis or stored at −80° C. until further analysis.”
# L. reuteri DSM 12246 [7] = test: BioLector growth on carbon sources; format: cell-based, Lactobacillus reuteri; settings: FIG. 3B
# Experimental: as §1, with “Samples were transferred to a 96 deep-well plate, spun down at 4000 rpm for 10 min at 4° C., and supernatants removed for analysis or stored at −80° C. until further analysis.” left out
# L. reuteri DSM 12246 [8] = test: Metabolomics of culture supernatants (NMN, NAD+); format: cell-based, Lactobacillus reuteri
# Experimental: as §1, with “[…] Sample supernatants” for “Samples”, “analyzed using metabolomics by Metabolon (NC, USA).” for “transferred to a 96 deep-well plate, spun down at 4000 rpm for 10 min at 4° C., and supernatants removed for analysis or stored at −80° C. until further analysis.”
# L. plantarum TIFN101 [9] = test: BioLector growth on carbon sources; format: cell-based, Lactobacillus plantarum; settings: FIG. 3C
# Experimental: as §1, with “Samples were transferred to a 96 deep-well plate, spun down at 4000 rpm for 10 min at 4° C., and supernatants removed for analysis or stored at −80° C. until further analysis.” left out
# B. bifidum R0071 [10] = test: Metabolomics of culture supernatants (NMN, NAD+); format: cell-based, Bifidobacterium bifidum
# Experimental: as §1, with “analysis. Sample supernatants were analyzed using metabolomics by Metabolon (NC, USA).” for “analysis.”
Structure (SMILES),Ability to grow on carbon source (B. bifidum HA-132),Ability to grow on carbon source (B. bifidum 32403),Ability to grow on carbon source (B. bifidum R0071 [1]),Ability to grow on carbon source (B. infantis HA-116 [2]),Ability to grow on carbon source (B. infantis R0033 [3]),"Growth on carbon source (in words) (B. bifidum 32403; BioLector, FIG. 3A, FIG. 6)",NAD+ production compared with growth on lactose (in words) (B. infantis HA-116 [4]),NAD+ production compared with growth on lactose (in words) (B. infantis R0033 [5]),NAD+ production (in words) (L. plantarum TIFN101 [6]),Growth on carbon source (in words) (L. reuteri DSM 12246 [7]),NAD+ production (in words) (L. reuteri DSM 12246 [8]),Growth on carbon source (in words) (L. plantarum TIFN101 [9]),NAD+ production (in words) (B. bifidum R0071 [10]),NMN production (in words) (B. bifidum R0071 [10])
"CC(=O)N[C@H]1[C@H]([C@H](O)[C@H](O)CO)O[C@@](O[C@H]2[C@@H](O)[C@@H](CO)O[C@@H](O[C@H]3[C@H](O)[C@@H](O)C(O)O[C@@H]3CO)[C@@H]2O)(C(=O)O)C[C@@H]1O (some centres unmarked) [3′SL, 3′-sialyllactose]",+++ (fast exponential growth reaching a plateau before 45 hours),+++ (fast exponential growth reaching a plateau before 45 hours),−,−,−,,,,,,,,,
C[C@H](O)[C@@H](O)[C@@H](O)[C@H](O)C=O [L-fucose],,,,,,not able to grow,,,,,,,,
"C[C@@H]1O[C@@H](O[C@H]2[C@H](O[C@H]3[C@H](O[C@@H]4O[C@@H](C)[C@@H](O)[C@@H](O)[C@@H]4O)[C@@H](O)C(O)O[C@@H]3CO)O[C@H](CO)[C@H](O)[C@@H]2O)[C@@H](O)[C@H](O)[C@@H]1O (some centres unmarked) [DFL, difucosyllactose]",,,,,,,a bit more,a bit more,,,,,,
"OC[C@H]1O[C@@H](O[C@H]2[C@H](O)[C@@H](O)C(O)O[C@@H]2CO)[C@H](O)[C@@H](O)[C@H]1O (some centres unmarked) [Lactose, lactose]",++ (slower exponential growth reaching a plateau after 45 hours),+++ (fast exponential growth reaching a plateau before 45 hours),+++ (fast exponential growth reaching a plateau before 45 hours),+++ (fast exponential growth reaching a plateau before 45 hours),+++ (fast exponential growth reaching a plateau before 45 hours),,,,able to produce NAD+,capable of growing,able to produce NAD+,capable of growing,able to produce NAD+,
"CC(=O)N[C@H]1[C@H](O[C@H]2[C@@H](O)[C@@H](CO)O[C@@H](O[C@H]3[C@H](O)[C@@H](O)C(O)O[C@@H]3CO)[C@@H]2O)O[C@H](CO)[C@@H](O[C@@H]2O[C@H](CO)[C@H](O)[C@H](O)[C@H]2O)[C@@H]1O (mixture of isomers) [LNnT, lacto-N-neotetraose]",+++ (fast exponential growth reaching a plateau before 45 hours),+++ (fast exponential growth reaching a plateau before 45 hours),++ (slower exponential growth reaching a plateau after 45 hours),+,−,,,,,,,,,low amounts
"CC(=O)N[C@H]1[C@H](O[C@H]2[C@@H](O)[C@@H](CO)O[C@@H](O[C@H]3[C@H](O)[C@@H](O)C(O)O[C@@H]3CO)[C@@H]2O)O[C@H](CO)[C@@H](O)[C@@H]1O[C@@H]1O[C@H](CO)[C@H](O)[C@H](O)[C@H]1O (some centres unmarked) [LNT, lacto-N-tetraose]",+++ (fast exponential growth reaching a plateau before 45 hours),+++ (fast exponential growth reaching a plateau before 45 hours),+++ (fast exponential growth reaching a plateau before 45 hours),+,−,,,,,,,,,low amounts
"CC(=O)N[C@H]1[C@H]([C@H](O)[C@H](O)CO)O[C@@](OC[C@H]2O[C@@H](O[C@H]3[C@H](O)[C@@H](O)[C@H](O)O[C@@H]3CO)[C@H](O)[C@@H](O)[C@H]2O)(C(=O)O)C[C@@H]1O [6′SL, 6′-sialyllactose]",+++ (fast exponential growth reaching a plateau before 45 hours),+++ (fast exponential growth reaching a plateau before 45 hours),−,−,−,,,,,,,,,
